In publication PMC12040169 (PLOS Biology, 2025):

Assay: in vitro
Settings: human, hela cells, % viability

Compound | viability at 28.5 h, 10 µM [%]
CN(CCC#N)C(=O)c1cc2cc(Cl)ccc2[nH]1 [CBK287956] | 98
Cn1c(SCc2ccccc2)nc2ccsc2c1=O [CBK288039] | 82.1
CCn1cc(C2CN(S(=O)(=O)c3ccc(F)c(C)c3)CCO2)cn1 (stereo not shown) [CBK305419] | 91.3
O=C(O)C1C2CCC(O2)C1C(=O)NCc1ccco1 (stereo not shown) [CBK263675] | 96.8
O=C(O)c1cccc(NS(=O)(=O)c2ccc3c(c2)OCCO3)c1 [CBK155697] | 96.9
O=C(NCc1ccc(Cl)cc1)c1cnc2ccc(C#CCO)cc2c1O [CBK017979] | 92.4
O=C(c1cc(F)cc(F)c1)N1CCC(n2cnc3cccnc32)CC1 [CBK283636] | 88.6
Cc1nnc(CN2CCOC(c3nc(C(C)(C)C)cs3)C2)n1C (stereo not shown) [CBK305772] | 93.1
C/C(=N\NS(=O)(=O)c1ccc(C)cc1)C(C)(C)CC(=O)O [CBK263601] | 102
COc1cc2ncc(C(=O)NCc3cccs3)c(O)c2cc1OC [CBK159998] | 91.9
O=C(Cc1ccc(F)cc1)NCc1nnc(-c2cccs2)o1 [CBK284640] | 82.6
O=C(NCCc1cccs1)Nc1cc(Cl)nc(Cl)c1 [CBK043762] | 87.2
COc1ccc(S(=O)(=O)N(C)CC(=O)N2CCN(Cc3ccccc3)CC2)cc1C [CBK268221] | 99.6
O=S(=O)(c1ccc2nc(-c3ccccc3)c(-c3ccc(O)cc3)nc2c1)c1ccc2nc(-c3ccccc3)c(-c3ccc(O)cc3)nc2c1 [CBK261148] | 108
CNC(=O)c1nc(NC)oc1C [CBK059214] | 94.4
CN1Cc2ccccc2OC2(CCCN(C(=O)C3CC3)CC2)C1 (stereo not shown) [CBK285131] | 110
O=C(NC(NCc1ccc2c(c1)OCO2)(C(F)(F)F)C(F)(F)F)c1cccnc1 [CBK074397] | 78.8
O=C(COc1ccc([N+](=O)[O-])cc1)Nc1ccc(S(=O)(=O)N2CCCCC2)cc1 [CBK265003] | 119
O=C1CC(Cc2ccccc2)C(=O)N1CCCn1ccnc1 (stereo not shown) [CBK265123G] | 97.4
Nc1cc2ccccc2c(-c2ccc3c(c2)OCCCO3)n1 [CBK085722] | 102
Cc1[nH]c(=O)[nH]c(=O)c1CC(=O)N1CCc2ncc(Cl)cc2C1 [CBK286302] | 101
Cc1sc2ncn(CCC(=O)O)c(=O)c2c1C [CBK288191] | 115

Compound | viability at 28.5 h, 10 µM [%]
O=C(O)C(Cc1ccccc1)N1C(=O)/C(=C/C(Cl)=C/c2ccc([N+](=O)[O-])cc2)SC1=S (stereo not shown) [CBK263523] | 95.4
CCN(CC)C(=O)CCCc1[nH]nc(O)c1Cc1c(Cl)cccc1Cl [CBK081524] | 89
Cc1nc(CC(=O)Nc2ccc(N3CCOCC3)cc2)cs1 [CBK304339] | 95.8
O=[N+]([O-])c1cc([N+](=O)[O-])c2cccnc2c1NNc1nncc2ccccc12 [CBK110409] | 85.1
O=C(NCc1ccc(OC2CCNCC2)cc1)c1ccccn1 [CBK036361T] | 93.1
CN(/N=C\c1ccc([N+](=O)[O-])cc1)c1nc(-c2ccccc2)cc(-c2ccccc2)n1 [CBK261517] | 88.9
CCOc1ccc(-n2c(SCc3nc(-c4ccccc4C)no3)nnc2-c2ccccc2)cc1 [CBK268910] | 109
COc1ccc(Sc2nc3ccccc3nc2N2CCCC2)cc1OC [CBK093797] | 101
Cc1nc(N)nc(NCC(O)CN(C)C)c1Cl (stereo not shown) [CBK306963] | 81.7
C/N=C1/SC(CC(=O)Nc2cccc(C(=O)O)c2)C(=O)N1C (stereo not shown) [CBK265581] | 99.8
Cc1cc(C)n2c(SCC(C)(C)NS(=O)(=O)c3ccccc3)nnc2n1 [CBK268369] | 111
Cn1cc(C2C[S+]([O-])CCN2Cc2csc3ccccc23)cn1 (stereo not shown) [CBK304085] | 103
CN(C)CCN(C)c1cc(-c2cccc(-c3ccccc3)c2)ncn1 [CBK037763] | 99.4
Cc1ccc(CN(Cc2cncn2C)CC2CCCO2)o1 (stereo not shown) [CBK283272] | 93.2
CCN1CCN(C(=O)Cc2cccnc2)CC1 [CBK200375] | 92.3
COc1cccc(NC(=O)CCn2ncc(Cl)c2C)c1 [CBK288012] | 94.9
CCNS(=O)(=O)c1ccc(NC(=O)Nc2ccccc2OC)cc1 [CBK270331] | 87.8
CS(=O)(=O)c1ccc(CN2CCOC[C@H]2c2nc(-c3ccc(F)cc3)c[nH]2)cc1 [CBK289295] | 89.4
Cc1cccn2c(CN3CCC(O)CC3)c(C(=O)N3CCCCC3)nc12 [CBK307639] | 104
COc1cccc(CSc2ccc(CN3CCOCC3)cc2F)c1 [CBK174976] | 87.1
Cc1csc2ncnc(NCCc3ccccn3)c12 [CBK017060] | 67.1
CC1CCc2nn(CCNC(=O)Cc3ccccc3F)c(=O)cc2C1 (stereo not shown) [CBK284482] | 97.2

Compound | viability at 28.5 h, 10 µM [%]
COc1cc(/C=N/n2c(S)nnc2-c2cccnc2)ccc1OCc1ccccc1 [CBK265307] | 110
COc1cccc(C(=O)Nc2ccc(-c3noc(-c4ccccn4)n3)cc2)c1 [CBK270055] | 110
Cc1ccc(OCC(=O)NC(C)c2ccc(F)cc2F)c([N+](=O)[O-])n1 (stereo not shown) [CBK295662] | 92.7
CC(C)OC(=O)N1CCC(N(C)Cc2ccc(-c3ccc(S(C)(=O)=O)cc3)cn2)CC1 [CBK165581T] | 90.8
O=[N+]([O-])c1ccc(Sc2nnc(-c3cccs3)n2CC2CCCO2)cn1 (stereo not shown) [CBK297483] | 94.6
Cc1c(C)n(Cc2ccco2)c2ncnc(SCCC(=O)O)c12 [CBK307569] | 105
CC(C)NS(=O)(=O)c1ccc(NS(=O)(=O)c2ccc(F)c(C(=O)O)c2)cc1 [CBK297533] | 93.6
CCO/C(C)=C/c1sc2ccc3ccccc3c2[n+]1CCCS(=O)(=O)[O-] [CBK260948] | 95.1
O=C(CC1SC(NC2CC3C=CC2C3)=NC1=O)NCc1ccccc1 (stereo not shown) [CBK049940] | 87.1
O=C(CSc1nc(O)c2c(-c3ccccc3)csc2n1)NCCc1ccccc1 [CBK268077] | 97.2
CN1Cc2nc[nH]c2C[C@H]1C(=O)NCc1ccco1 [CBK288979] | 88
CC(C)(C)OC(=O)N1CCCC(C(=O)Nc2ccccn2)C1 (stereo not shown) [CBK304524] | 95.4
CCOc1ccc(N2C(=O)CC(N3CCN(c4ccc(C(=O)c5ccncc5)cc4)CC3)C2=O)cc1 (stereo not shown) [CBK269124] | 86.5
CN1CCC2(CCC1=O)CC(NC(=O)C1CC1)c1ccccc1O2 (stereo not shown) [CBK284455] | 93.3
CC(=O)Nc1cccc(C(=O)NCC(c2cccs2)N(C)C)c1 (stereo not shown) [CBK304583] | 86.7
CC(C)(C)NC(=O)c1ccc(-n2ccnc2)c(-n2cccc2)c1 [CBK284811] | 103
Cc1nc(-c2ccccc2)sc1CNC(=O)C(F)(F)F [CBK092363] | 88.8
Cc1ccc(NC(=O)c2ccc3nccnc3c2)c(C)n1 [CBK200219] | 93.6
O=c1[nH]ccn1CCNc1cc(-c2ccccc2Oc2ccccc2)ncn1 [CBK036966] | 90.4
COc1ccc(C(=O)Nc2nnc(-c3ccccc3OC)o2)cc1OC [CBK287589] | 86.3
OC(CNC1CCN(Cc2ccccc2)CC1)COc1ccc2c(c1)OCO2 (stereo not shown) [CBK074645] | 96.5
COc1ccc(N(C(C)C(=O)Nc2ccc(Cl)c(Cl)c2)S(C)(=O)=O)cc1 (stereo not shown) [CBK266872] | 114

Compound | viability at 28.5 h, 10 µM [%]
Cc1cn(S(=O)(=O)N(C)C)nc1-c1ccccc1 [CBK005210] | 89.9
CC(C)N(C(=O)Cn1c(-c2ccco2)cc2cccnc21)C(C)C [CBK282682] | 99.4
COc1ccc(N2CCN(Cc3cc([N+](=O)[O-])ccc3Cl)CC2)cc1 [CBK261571] | 88.9
COc1ccccc1CNCC1CCN(C(=O)OC(C)(C)C)CC1 [CBK056710] | 96.4
COc1cc2c(cc1OC)CN(C(=O)c1cncnc1)CC2 [CBK122748] | 105
CN1CCCN(Cc2ccc([N+](=O)[O-])s2)CC1 [CBK261558] | 94
CCn1ncc2c1CCCC2NC1CCCN(c2cnn(C)c2)C1=O (stereo not shown) [CBK305316] | 88.7
O=C1Nc2ccc(-c3ccccc3F)cc2C(=O)N2CCN(C(=O)c3cccnc3)C[C@H]12 [CBK289591] | 111
CCCCc1ccc(NC(=S)NN2CCN(C)CC2)cc1 [CBK265741] | 97.1
CCN(CC)C(=O)[C@@H]1CCCN(C2CCN(C(=O)c3c4ccccc4cc4ccccc34)CC2)C1 [CBK066966C] | 90.4
O=C(NCCc1c[nH]c2cccc(C3(O)CCCC3)c12)C1CC1 [CBK285319] | 82.3
O=C(Nc1ncnc2c1nc(OCc1ccccc1)n2C1CC(O)C(CO)O1)c1ccccc1 (stereo not shown) [CBK201220] | 95.3
CC(C)CN(C)CC(=O)NC1(c2ccccc2)CCC1 [CBK067455T] | 111
O=C(Cc1ccccc1)N1CCC(CC(=O)N2CCC3(CCCCC3)C2)CC1 [CBK286031] | 93.8
CC(=O)c1ccccc1-c1ccc(C(=O)NCCc2ccccn2)c(NCC2CC2)n1 [CBK076580] | 98.8
CC1CCc2c(sc(NC(=O)c3ccncc3)c2C(N)=O)C1 (stereo not shown) [CBK288530] | 87.8
CCN(CC)C(=O)CN(CCc1ccc(OC)c(OC)c1)C(=O)NCc1c(Cl)cccc1Cl [CBK158743] | 89.9
CCN(CC)c1c(C)nc2ccc(C(=O)Nc3cc(-c4ccccc4)ccc3OC)cn12 [CBK145980] | 121
Nc1cc(=O)[nH]c(SCC(=O)N2CCc3ccccc32)n1 [CBK307424] | 94.4
O=C(c1cnccn1)N1C[C@@H]2OCC(=O)N(CC3CC3)[C@@H]2C1 [CBK289681] | 91.3
COc1ccccc1CC(=O)N1[C@H](Cc2ccccc2)C[C@@H]2NCCCCC[C@H]21 [CBK285978] | 96.3

Same assay, conditions: human, hela cells, % viability, bulk resorufin, single well

Compound | viability at 28.5 h, 10 µM [%]
CCOC(=O)N1CCC2(CC1)OCc1ccc(Oc3ccncc3)cc1O2 [CBK174776] | 102
